Measurements taken from patent US5283248A, “Amino substituted pyrimido[1,6-2]benzimidazoles” (priority 1989, dated 1994).

Legend:
DNA-gyrase = biological target: T1, DNA-gyrase (Escherichia coli, UniProt P0AES4+P0AES6); experiment: DNA-gyrase inhibition, supercoiling method (relaxed pUC18 or pUC19 plasmid DNA as substrate); assay type: biochemical; details: E. coli DNA-gyrase
T1 construct: made in house; host or cells: E. coli N4186 and E. coli MK47
Text: The inhibitory action on the DNA-gyrase activity in bacteria can be determined, for example, by means of the supercoiling method described by R. Otter and N. R. Cozzarelli in Methods in Enzymology, Vol. 100, pp. 171-180 (1983). The DNA-gyrase used was isolated from E. coli N4186 and from the sub-unit B of E. coli MK47 (Mitsuchi et al., JBL 159, 9199-9201 (1984)). Relaxed pUC18 or pUC19 plasmid DNA was used as the substrate. The results determined in this test are compiled in the following Table, with the results being expressed as the MNC (maximum non-effective concentration) in μg/ml.

Toxicity, LD50 = details: in vivo

T1 sequence (P0AES4 whole entry, one chain of several): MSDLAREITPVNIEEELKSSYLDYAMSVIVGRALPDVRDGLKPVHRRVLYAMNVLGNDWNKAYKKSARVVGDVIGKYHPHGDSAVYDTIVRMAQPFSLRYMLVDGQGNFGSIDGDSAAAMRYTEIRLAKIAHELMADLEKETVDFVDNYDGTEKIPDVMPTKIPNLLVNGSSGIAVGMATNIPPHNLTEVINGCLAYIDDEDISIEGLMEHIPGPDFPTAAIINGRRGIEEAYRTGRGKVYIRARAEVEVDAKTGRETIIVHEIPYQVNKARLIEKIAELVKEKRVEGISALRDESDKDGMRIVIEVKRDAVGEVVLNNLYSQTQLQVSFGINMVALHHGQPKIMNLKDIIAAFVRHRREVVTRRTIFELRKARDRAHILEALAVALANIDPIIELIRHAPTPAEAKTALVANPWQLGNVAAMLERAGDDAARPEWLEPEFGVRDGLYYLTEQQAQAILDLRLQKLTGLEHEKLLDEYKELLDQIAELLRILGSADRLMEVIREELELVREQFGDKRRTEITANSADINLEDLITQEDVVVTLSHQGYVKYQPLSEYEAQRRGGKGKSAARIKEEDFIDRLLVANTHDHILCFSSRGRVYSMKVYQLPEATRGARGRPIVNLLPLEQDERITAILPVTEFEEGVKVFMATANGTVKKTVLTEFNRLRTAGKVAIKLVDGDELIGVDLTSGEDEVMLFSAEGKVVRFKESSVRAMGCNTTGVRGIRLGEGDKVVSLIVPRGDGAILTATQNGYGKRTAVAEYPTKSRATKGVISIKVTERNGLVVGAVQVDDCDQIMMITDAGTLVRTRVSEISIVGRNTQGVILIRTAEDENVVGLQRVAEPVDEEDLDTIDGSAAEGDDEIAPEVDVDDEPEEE

Structure (SMILES) | Activity MNC (maximum non-effective concentration) (DNA-gyrase) [µg/mL] | LD50 (Toxicity, LD50; iv) [mg/kg] | LD50 (Toxicity, LD50; po) [mg/kg]
CCn1c2cc(N3CCN(C)CC3)c(F)cc2n2c(=O)[nH]c(=O)cc12 [Example 1, 5-ethyl-8-fluoro-7-(4-methyl-1-piperazinyl)pyrimido[1,6-a]benzimidazole-1,3(2H,5H)-dione] | 2 | – | –
O=C(O)C(F)(F)F.O=c1cc2n(C3CC3)c3cc(N4CCNCC4)c(F)cc3n2c(=O)[nH]1 [Example 2, 5-cyclopropyl-8-fluoro-7-(1-piperazinyl)-pyrimido[1,6-a]benzimidazole-1,3(2H,5H)-dione trifluoroacetate] | 0.45 | 30 | > 2000
CCn1c2cc(N3CCN(C)CC3)c(F)cc2n2c(=O)[nH]c(=S)cc12 [Example 3] | 2 | – | –
Cl.O=c1cc2n(C3CC3)c3cc(N4CCNCC4)c(F)cc3n2c(=O)n1O [Example 4, 5-cyclopropyl-8-fluoro-2-hydroxy-7-(1-piperazinyl)-pyrimido[1,6-a]benzimidazole-1,3(2H,5H)-dione hydrochloride] | 2 | 30 | > 4000
CCn1c2cc(N3CCNCC3)c(F)cc2n2c(=O)[nH]c(=O)cc12 [Example 8, 5-ethyl-8-fluoro-7-(1-piperazinyl)pyrimido[1,6-a]benzimidazole-1,3(2H,5H)-dione] | 1 | – | –
